Reference: US20050064470A1, “High throughput screening methods for identifying RNA binding compounds” (priority 2003, published 2005)

Legend:
wild-type TAR RNA = experiment: Fluorescence polarization anisotropy (FPA) binding to fluorescein-labeled wild-type TAR RNA; set-up: species or system HIV-1; conditions: for Kd / specificity for wild-type TAR over bulgeless TAR (in words) / affinity for TAR RNA (in words): FPA; for Kd: 20 mM KCl, fluorescein-tagged wild-type TAR RNA, room temperature, read-out: Kd wt TAR; for specificity for wild-type TAR over bulgeless TAR (in words): wild-type vs bulge-deleted TAR; for Binding Specificity (Kd (mutTAR)/Kd (wtTAR)): ratio of Kd for bulge-deleted TAR to Kd for wild-type TAR, in text as fold decrease of affinity
Protocol: (§1) β-Peptide and mutant β-peptide binding affinities to TAR RNA were measured by fluorescence anisotropy method on a PTI (Photon Technology International) fluorescence spectrophotometer. A T-format setup based on two emission channels was used. The intensities of the parallel and perpendicular components simultaneously were obtained in one measurement using two separate detectors. The excitation side is a motorized Glan-Thompson polarizer and emission sides are two film polarizers placed in vertical and horizontal orientation, respectively. The anisotropy can be calculated from equation 1, [formula] • where III and I⊥ are fluorescence intensities observed when the emission polarizer is oriented parallel and perpendicular to the direction of the polarized excitation, respectively.
(§2) The fluorescein-labeled TAR RNA (F-TAR, either wt TAR or bulge-less TAR, see FIG. 1) was excited at 490 nm and two polarized emissions were monitored at 512 nm. The slits were set at 8 nm for both excitation and emission light. The integration time was 20 seconds. All data were measured in a Sub-Micro cuvette (Starna Cell, Inc.) with a starting volume of 160 μL. Each addition of β-peptide/mutant β-peptide was followed by one-minute equilibration before the fluorescence signal was recorded. All experiments were done at room temperature and in a TKT buffer (TKT: 50 mM Tris-HCl, pH=7.4, 20 mM KCl and 0.02% Tween20). The initial concentration of F-TAR was around 25 nM. The stock concentration of β-peptide/mutant β-peptide for titration was 2 μM. The experiment was repeated three times independently. For every single point, five measurements were made and their average anisotropy value was used for calculation of the KD.
(§3) The binding dissociation constant (KD) is determined by fitting the plot of anisotropy of F-TAR versus the concentration of the β-peptide using equation 3, [formula] • where A is the relative fluorescence anisotropy of dye-labeled TAR RNA. The capacity for binding, Cap, is the maximum binding ability of a small molecule. C is the total concentration of β-peptide added. a is a correction factor.

[1] = biological target: bulge-deleted (mut) TAR RNA; experiment: Fluorescence polarization anisotropy (FPA) binding to fluorescein-labeled bulge-deleted TAR RNA; set-up: species or system HIV-1; conditions: for Kd: FPA, 20 mM KCl, fluorescein-tagged bulge-deleted TAR RNA, room temperature
Protocol: as §1, §2, §3

## N-Tyr-Gly-Arg-Lys-Lys-Arg-Arg-Gln-Arg-Arg-Arg [α-TatR 3, reference compound]
wild-type TAR RNA
  Kd: 1.8 ± 0.5 nM
  specificity for wild-type TAR over bulgeless TAR (in words): little specificity
  Binding Specificity (Kd (mutTAR)/Kd (wtTAR)): 1
[1]
  Kd: 1.1 ± 0.2 nM

## β-amino acid oligomer (β-peptide) analogue of Tat 47-57 (YGRKKRRQRRR, SEQ ID NO:1) [wt β-peptide 1]
wild-type TAR RNA
  affinity for TAR RNA (in words): nanomolar affinity
  Kd: 28 ± 4 nM
  specificity for wild-type TAR over bulgeless TAR (in words): enhanced specificity
  Binding Specificity (Kd (mutTAR)/Kd (wtTAR)): 10
wild-type TAR RNA; compared to α-peptide 3
  affinity for wild-type TAR lower than that of α-peptide 3: roughly 15 fold
wild-type TAR RNA; listed as β-peptide 1
  Binding Specificity (Kd (mutTAR)/Kd (wtTAR)): about 10
wild-type TAR RNA; value above 1.0 denotes stronger binding of the analogue relative to the native peptide
  dissociation constant ratio (Krel) relative to α-peptide 3: 0.072
[1]
  Kd: 281 ± 68 nM
[1]; compared to α-peptide 3
  affinity for bulgeless TAR reduced compared to α-peptide 3: more than two orders of magnitude

## β-peptide in which all arginine side chains have been replaced by lysine side chains (YGKKKKKQKKK; SEQ ID NO:2) [mut β-peptide 2]
wild-type TAR RNA
  affinity for TAR RNA (in words): high affinity
  Kd: 16 ± 2 nM
  specificity for wild-type TAR over bulgeless TAR (in words): less specificity
  Binding Specificity (Kd (mutTAR)/Kd (wtTAR)): 2
[1]
  Kd: 33 ± 2 nM
